Tests used:
Type in all cases: cell-based
H358 cells (G12C) = experiment: Cell viability assay (CellTiter-Glo), H358 cells; conditions: Homo sapiens, NCI-H358, 72 h; H358 cells, 3 days incubation, CellTiter-Glo luminescence; read-out: Inhibition of Cancerous Cells IC50 H358 (G12C)
Outline: (§1)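 Each cell line is treated with compound for 3 days at 37 °C under 5% CO2 in its own medium containing 2.5% FBS. ATP-based CellTiter-Glo luminescence, measured after 10 min shaking, serves as the viability signal relative to DMSO control.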

H23 cells = experiment: Cell viability assay (CellTiter-Glo), H23 cells; conditions: Homo sapiens, NCI-H23, 72 h; H23 cells, 3 days incubation, CellTiter-Glo luminescence; read-out: Inhibition of Cancerous Cells IC50 H23
Protocol: (§2) H358, H23, SW48, and AsPC-1 cells were cultured in RPMI 1640 media supplemented with 10% fetal bovine serum, streptomycin, and penicillin. Lovo and SW480 cells were cultured in DMEM media supplemented with 10% fetal bovine serum, streptomycin, and penicillin. The cell lines were plated in their respective medium supplemented with 2.5% fetal bovine serum, streptomycin, and penicillin. All cell lines were plated in white walled 96-well plates at 2,000 cells/well or 384-well plates at 500 cells/well, except Lovo, which were plated at 4,000 or 1,000 cells/well, respectively. The cells were incubated in DMSO (control) or a compound for 3 days at 37° C. under 5% CO2. A CELLTITER-GLO® reagent (100 μL) was then added to each well. After a 10 min incubation with shaking, luminescence was measured using an ENVISION® multimode plate reader.

SW480 cells (G12V) = experiment: Cell viability assay (CellTiter-Glo), SW480 cells; conditions: Homo sapiens, 72 h; SW480 cells, 3 days incubation, CellTiter-Glo luminescence; read-out: Inhibition of Cancerous Cells IC50 SW480 (G12V)
Outline: as §1

AsPC-1 cells (G12D) = experiment: Cell viability assay (CellTiter-Glo), AsPC-1 cells; conditions: Homo sapiens, ASPC1, 72 h, 3 days incubation, CellTiter-Glo luminescence, read-out: Inhibition of Cancerous Cells IC50 AsPC-1 (G12D)
Protocol: as §2

SW48 cells (wt) = experiment: Cell viability assay (CellTiter-Glo), SW48 cells; conditions: Homo sapiens, 72 h; SW48 cells, 3 days incubation, CellTiter-Glo luminescence; read-out: Inhibition of Cancerous Cells IC50 SW48 (wt)
Outline: as §1

Lovo cells (G13D) = experiment: Cell viability assay (CellTiter-Glo), Lovo cells; conditions: Homo sapiens, 72 h; Lovo cells, 3 days incubation, CellTiter-Glo luminescence; read-out: Inhibition of Cancerous Cells IC50 Lovo (G13D)
Outline: as §1

**Q.** How did the IC50 (H358 cells (G12C)) turn out when `CNCc1ccccc1-c1csc([C@H](C)Nc2nc(C)nc3cc(OC)c(OC)cc23)c1` [reference compound] was run?
**A.** The IC50 was 2.4 µM.

**Q.** What about the IC50 (H23 cells) of the same molecule?
**A.** Its IC50 is 2.3 µM.

**Q.** For `COc1cc2c(N[C@H](C)c3cccc(Br)c3)nc(C)nc2cc1OCCOCCOCCNc1cccc2c1C(=O)N(C1CCC(=O)NC1=O)C2=O` (stereo partly drawn) [Compound A36, 4-((2-(2-(2-((4-(((R)-1-(3-Bromophenyl)ethyl)amino)-6-methoxy-2-methyl-quinazolin-7-yl)oxy)ethoxy)ethoxy)ethyl)amino)-2-(2,6-dioxopiperidin-3-yl)isoindoline-1,3-dione], which IC50 (H358 cells (G12C)) is on record?
**A.** The IC50 was 8.8 µM.

**Q.** And the IC50 (H23 cells)?
**A.** Its IC50 is 8.3 µM.

**Q.** Which results are given for `CNCc1ccccc1-c1csc([C@@H](C)Nc2nc(C)nc3cc(OC)c(OC)cc23)c1` [reference compound]?
**A.** IC50 (H358 cells (G12C)): 2.1 µM; IC50 (H23 cells): 1.5 µM

**Q.** Which results are given for `COc1cc2nc(C)nc(N[C@H](C)c3cccc(Br)c3)c2cc1OCCCCCCCN1CCC(c2cc(F)cc3c2CN(C2CCC(=O)NC2=O)C3=O)CC1` (stereo partly drawn) [Compound A19, 3-(4-(1-(7-((4-(((R)-1-(3-Bromophenyl)ethyl)amino)-7-methoxy-2-methyl-quinazolin-6-yl)oxy)heptyl)piperidin-4-yl)-6-fluoro-1-oxoisoindolin-2-yl)piperidine-2,6-dione]?
**A.** IC50 (H358 cells (G12C)): 1.7 µM; IC50 (H23 cells): 1.9 µM

**Q.** `COc1cc2c(N[C@H](C)c3cccc(Br)c3)nc(C)nc2cc1OCCCCCCCOc1cc(-c2scnc2C)ccc1CNC(=O)[C@@H]1C[C@@H](O)CN1C(=O)[C@@H](NC(C)=O)C(C)(C)C` [Compound D11, (2S,4R)-1-((S)-2-Acetamido-3,3-dimethylbutanoyl)-N-(2-((7-((4-(((R)-1-(3-bromophenyl)ethyl)amino)-6-methoxy-2-methylquinazolin-7-yl)oxy)heptyl)oxy)-4-(4-methylthiazol-5-yl)benzyl)-4-hydroxypyrrolidine-2-carboxamide] was tested. Which IC50 (SW480 cells (G12V)) did it give?
**A.** Its IC50 is 1.2 µM.

**Q.** What about the IC50 (H358 cells (G12C)) of the same molecule?
**A.** Its IC50 is 1.6 µM.

**Q.** What about the IC50 (AsPC-1 cells (G12D)) of the same molecule?
**A.** The IC50 was greater than 10 µM.

**Q.** What about the IC50 (SW48 cells (wt)) of the same molecule?
**A.** The IC50 was 5.9 µM.

**Q.** What about the IC50 (Lovo cells (G13D)) of the same molecule?
**A.** The IC50 was 2.6 µM.

**Q.** With `CN[C@@H](C)C(=O)N[C@H](C(=O)N1CCC[C@H]1c1nc(C(=O)c2cccc(OCCCCCCCCCCOc3cc4nc(C)nc(N[C@H](C)c5cccc(Br)c5)c4cc3OC)c2)cs1)C1CCCCC1` [Compound B3, (S)—N—((S)-2-((S)-2-(4-(3-((10-((4-(((R)-1-(3-Bromophenyl)ethyl)amino)-6-methoxy-2-methylquinazolin-7-yl)oxy)decyl)oxy)benzoyl)thiazol-2-yl)pyrrolidin-1-yl)-1-cyclohexyl-2-oxoethyl)-2-(methylamino)propanamide] as the molecule, how does the IC50 (SW480 cells (G12V)) read?
**A.** The IC50 was 2.3 µM.

**Q.** And the IC50 (H358 cells (G12C))?
**A.** Its IC50 is 2.2 µM.

**Q.** And the IC50 (AsPC-1 cells (G12D))?
**A.** The IC50 was 5 µM.

**Q.** And the IC50 (SW48 cells (wt))?
**A.** Its IC50 is 4.7 µM.

**Q.** And the IC50 (Lovo cells (G13D))?
**A.** The IC50 was 1.4 µM.

**Q.** Which IC50 (SW480 cells (G12V)) does the source give for `COc1cc2c(N[C@H](C)c3cccc(Br)c3)nc(C)nc2cc1OCCCCCCCCCCCCNC(=O)[C@H](CC(C)C)NC(=O)[C@@H](O)[C@H](N)Cc1ccccc1` [Compound B9, (S)-2-((2S,3R)-3-Amino-2-hydroxy-4-phenylbutanamido)-N-(12-((4-(((R)-1-(3-bromophenyl)ethyl)amino)-6-methoxy-2-methylquinazolin-7-yl)oxy)dodecyl)-4-methylpentanamide] here?
**A.** Its IC50 is 0.96 µM.

**Q.** What about the IC50 (H358 cells (G12C)) of the same molecule?
**A.** The IC50 was 1.2 µM.

**Q.** What about the IC50 (AsPC-1 cells (G12D)) of the same molecule?
**A.** The IC50 was 2.7 µM.

**Q.** What about the IC50 (SW48 cells (wt)) of the same molecule?
**A.** Its IC50 is 1.4 µM.

**Q.** What about the IC50 (Lovo cells (G13D)) of the same molecule?
**A.** Its IC50 is 0.73 µM.

**Q.** What does the source list for `COc1cc2c(N[C@H](C)c3cccc(Br)c3)nc(C)nc2cc1OCCCCCCCCCCCCCOc1cc(-c2scnc2C)ccc1CNC(=O)[C@@H]1C[C@@H](O)CN1C(=O)[C@@H](NC(C)=O)C(C)(C)C` [Compound D14, (2S,4R)-1-((S)-2-Acetamido-3,3-dimethylbutanoyl)-N-(2-((13-((4-(((R)-1-(3-bromophenyl)ethyl)amino)-6-methoxy-2-methylquinazolin-7-yl)oxy)tridecyl)oxy)-4-(4-methyl-thiazol-5-yl)benzyl)-4-hydroxypyrrolidine-2-carboxamide]?
**A.** IC50 (SW480 cells (G12V)): 3.3 µM; IC50 (H358 cells (G12C)): > 10 µM; IC50 (AsPC-1 cells (G12D)): > 10 µM; IC50 (SW48 cells (wt)): > 10 µM; IC50 (Lovo cells (G13D)): 0.64 µM

— patent publication US20240025863A1, “SOS1 PROTEIN DEGRADERS, PHARMACEUTICAL COMPOSITIONS THEREOF, AND THEIR THERAPEUTIC APPLICATIONS” (BioTheryX, Inc., priority 2020, published 2024)
